Reference: US20140358576A1, “SYSTEM AND METHOD FOR SURVEILLANCE AND EVALUATION OF SAFETY RISKS ASSOCIATED WITH MEDICAL INTERVENTIONS” (Adverse Events, Inc., priority 2013, published 2014)
Counter-ions that a name gives are not always drawn. Numbered stars: 1 amine (or outer) side, 2 acyl side, 3 side chain; on linkers, the order of the positions; unused ones are H or OH. Bridge positions count the residues as written; N and C are the ends. Square brackets hold non-standard residues; d marks the D form. Peptide text beside a SMILES is read from it. * marks the point of attachment. hTyr(3S-OH,4S-OH,3'-OSO3H) = N[C@H](C(=O)O)[C@H](O)[C@@H](O)c1ccc(O)c(OS(=O)(=O)O)c1; Orn(4R-OH,5R-OH) = O=C([C@H](C[C@@H](O)[C@@H](O)N[*:3])N[*:1])[*:2]; Pro(3S-OH,4S-Me) = C[C@H]1CN[C@H](C(=O)O)[C@H]1O; X1 = CCCCCOc1ccc(-c2cc(-c3ccc(C(=O)*)cc3)no2)cc1; Gln(3R-OH) = NC(=O)C[C@@H](O)[C@H](N)C(=O)O; Hyp = O=C(O)[C@@H]1C[C@@H](O)CN1

Conditions: human

SMILES	ROR	Adverse Event Seriousness	Outcome	RxScore
CN1CCC(=C2c3ccccc3CCn3c(C=O)cnc32)CC1 [alcaftadine]	12.53			
Cc1nnc2n1-c1ccc(Cl)cc1C(c1ccccc1)=NC2 [alprazolam]	6.40	13.30	21.02	72.84
CC[C@H]1OC(=O)[C@H](C)[C@@H](O[C@H]2C[C@@](C)(OC)[C@@H](O)[C@H](C)O2)[C@H](C)[C@@H](O[C@@H]2O[C@H](C)C[C@H](N(C)C)[C@H]2O)[C@](C)(O)C[C@@H](C)CN(C)[C@H](C)[C@@H](O)[C@]1(C)O [azithromycin]	13.60			
C[C@H]1[C@H](NC(=O)/C(=N\OC(C)(C)C(=O)O)c2csc(N)n2)C(=O)N1S(=O)(=O)O [aztreonam]	5.83	14.58	22.41	75.34
CC(C)C[C@H](NC(=O)[C@H](CCc1ccccc1)NC(=O)CN1CCOCC1)C(=O)N[C@@H](Cc1ccccc1)C(=O)N[C@@H](CC(C)C)C(=O)[C@@]1(C)CO1 [carfilzomib]			22.81	
CCCC(C)(COC(N)=O)COC(=O)NC(C)C (centres unmarked) [carisoprodol]	9.07	17.03	26.05	83.70
Nc1nc(Cl)nc2c1ncn2[C@@H]1O[C@H](CO)[C@@H](O)[C@@H]1F [clofarabine]			23.27	
O=C1CN=C(c2ccccc2Cl)c2cc([N+](=O)[O-])ccc2N1 [clonazepam]	3.43	11.38	15.34	51.36
CN1CCN(C2=Nc3cc(Cl)ccc3Nc3ccccc32)CC1 [clozapine]		16.28	23.55	
CN(C)CCC=C1c2ccccc2C=Cc2ccccc21 [cyclobenzaprine hydrochloride]	6.09	12.25	22.45	72.46
CCCCC[C@H](O)/C=C/[C@H]1[C@H](O)CC(=O)[C@@H]1C/C=C\CCCC(=O)O [dinoprostone]	10.62	15.66	19.09	74.95
CCCC(CCC)C(=O)O [divalproex sodium]	3.85	8.51	11.14	41.09
CNC[C@H](O)c1ccc(O)c(O)c1 [epinephrine injection, epinephrine]	16.91	4.69	21.03	73.02
C#Cc1cccc(Nc2ncnc3cc(OCCOC)c(OCCOC)cc23)c1 [erlotinib hydrochloride]		18.95		
C[C@]12CC[C@@H]3c4ccc(O)cc4CC[C@H]3[C@@H]1CC[C@@H]2O [estradiol]	13.26	20.16		
CCC1(C)CC(=O)NC1=O (centres unmarked) [ethosuximide]	2.92	7.71	10.64	41.01
NC(=O)OCC(COC(N)=O)c1ccccc1 [felbamate]	2.81	7.72	14.26	43.92
O=C1NC(c2ccccc2)(c2ccccc2)C(=O)N1COP(=O)(O)O [fosphenytoin sodium]	5.09	8.16	15.85	46.69
CC(OC(=O)NCC1(CC(=O)O)CCCCC1)OC(=O)C(C)C (centres unmarked) [gabapentin enacarbil]	2.64	4.67	7.53	42.19

SMILES	ROR	Adverse Event Seriousness	Outcome	RxScore
NCC1(CC(=O)O)CCCCC1 [gabapentin]	2.86	9.67	11.51	43.00
CCCCCC(=O)O[C@]1(C(C)=O)CC[C@H]2[C@@H]3CCC4=CC(=O)CC[C@]4(C)[C@H]3CC[C@@]21C [hydroxyprogesterone caproate]	12.09			
CCCCCN(C)CCC(O)(P(=O)(O)O)P(=O)(O)O [ibandronate sodium]	3.13	10.42	13.02	45.79
Nc1nnc(-c2cccc(Cl)c2Cl)c(N)n1 [lamotrigine]	3.57	8.89	10.41	42.04
CC(=O)O[C@]1(C(C)=O)CC[C@H]2[C@@H]3C[C@H](C)C4=CC(=O)CC[C@]4(C)[C@H]3CC[C@@]21C [medroxyprogesterone acetate]	12.89	19.89		
CN[C@@H](C)Cc1ccccc1 [methamphetamine hydrochloride]	12.29	15.73	20.20	78.80
COC(=O)C(c1ccccc1)C1CCCCN1 (centres unmarked) [methylphenidate]	13.69			
CCCCCOc1ccc(-c2cc(-c3ccc(C(=O)N[C@H]4C[C@@H](O)[C@@H](O)NC(=O)[C@@H]5[C@@H](O)[C@@H](C)CN5C(=O)[C@H]([C@H](O)CC(N)=O)NC(=O)[C@H]([C@H](O)[C@@H](O)c5ccc(O)c(OS(=O)(=O)O)c5)NC(=O)[C@@H]5C[C@@H](O)CN5C(=O)[C@H]([C@@H](C)O)NC4=O)cc3)no2)cc1 [micafungin sodium] (X1-[Orn(4R-OH,5R-OH)]T[Hyp][hTyr(3S-OH,4S-OH,3'-OSO3H)][Gln(3R-OH)][Pro(3S-OH,4S-Me)]; lactam 1-C)			22.48	
O=C1CCCC(=O)C1C(=O)c1ccc(C(F)(F)F)cc1[N+](=O)[O-] [nitisinone]	5.32	15.20	23.09	74.78
[N]=O [nitric oxide]		19.58		
NCCC(O)(P(=O)(O)O)P(=O)(O)O [pamidronate disodium]	11.49	12.75	6.73	51.86
N#Cc1ccccc1-c1cc(-c2ccccn2)cn(-c2ccccc2)c1=O [perampanel]	3.53	7.92	14.67	47.40
CC(C)(N)Cc1ccccc1 [phentermine]	12.22			
O=C1NC(=O)C(c2ccccc2)(c2ccccc2)N1 [phenytoin sodium]	5.12	8.38	12.65	44.47
Nc1cccc2c1C(=O)N(C1CCC(=O)NC1=O)C2=O (centres unmarked) [pomalidomide]			25.31	
CC(C)C[C@H](CN)CC(=O)O [pregabalin]	2.21	7.13	8.25	36.30
CCC1(c2ccccc2)C(=O)NCNC1=O [primidone]	3.59	8.70	10.86	42.07
C=C[C@]1(C)C[C@@H](OC(=O)CS[C@@H]2C[C@H]3CC[C@@H](C2)N3C)[C@]2(C)[C@H](C)CC[C@]3(CCC(=O)[C@H]32)[C@@H](C)[C@@H]1O [retapamulin]	12.35			
CN1C(=O)C(O)N=C(c2ccccc2)c2cc(Cl)ccc21 (centres unmarked) [temazepam]	5.17	12.79	22.08	72.69
